{"source": "paper PMC10298530", "about": "“Synthesis and Anticancer Activity of A-Ring-Modified Derivatives of Dihydrobetulin” (International Journal of Molecular Sciences, 2023)", "key": {"[1]": {"test_system": "RD TE32", "test": "MTT cell viability assay, RD TE32", "format": "cell-based, human", "settings": "for IC50: Homo sapiens", "excerpt": "(§1) Blokhin National Medical Research Center of Oncology (the Ministry of Health of the Russian Federation, Moscow)."}, "[2]": {"test_system": "A549", "test": "MTT cell viability assay, A549", "format": "cell-based, human", "settings": "for IC50: Homo sapiens", "excerpt": "as §1"}, "[3]": {"test_system": "PC-3", "test": "MTT cell viability assay, PC-3", "format": "cell-based, human", "settings": "for IC50: Homo sapiens", "excerpt": "as §1"}, "[4]": {"test_system": "HBL-100/Dox", "test": "MTT cell viability assay, HBL-100/Dox", "format": "cell-based, human", "protocol": "The cells were cultured in a humidified CO2 incubator (model 460-CE; Thermo Fisher Scientific, Waltham, MA, USA) at +37 °C and 5% CO2.\nThe percentage of the viable cells was calculated according to the following equation: cell viability (%) = 100 × (mean absorbance in the treatment group/mean absorbance in the control group). The results were expressed pictorially using Prism 6.0 (GraphPad Software, Boston, MA, USA)."}, "[5]": {"target": "T1, P-gp (Homo sapiens, UniProt P08183)", "T1 construct": "endogenous in cells", "T1 sequence (P08183 whole entry)": "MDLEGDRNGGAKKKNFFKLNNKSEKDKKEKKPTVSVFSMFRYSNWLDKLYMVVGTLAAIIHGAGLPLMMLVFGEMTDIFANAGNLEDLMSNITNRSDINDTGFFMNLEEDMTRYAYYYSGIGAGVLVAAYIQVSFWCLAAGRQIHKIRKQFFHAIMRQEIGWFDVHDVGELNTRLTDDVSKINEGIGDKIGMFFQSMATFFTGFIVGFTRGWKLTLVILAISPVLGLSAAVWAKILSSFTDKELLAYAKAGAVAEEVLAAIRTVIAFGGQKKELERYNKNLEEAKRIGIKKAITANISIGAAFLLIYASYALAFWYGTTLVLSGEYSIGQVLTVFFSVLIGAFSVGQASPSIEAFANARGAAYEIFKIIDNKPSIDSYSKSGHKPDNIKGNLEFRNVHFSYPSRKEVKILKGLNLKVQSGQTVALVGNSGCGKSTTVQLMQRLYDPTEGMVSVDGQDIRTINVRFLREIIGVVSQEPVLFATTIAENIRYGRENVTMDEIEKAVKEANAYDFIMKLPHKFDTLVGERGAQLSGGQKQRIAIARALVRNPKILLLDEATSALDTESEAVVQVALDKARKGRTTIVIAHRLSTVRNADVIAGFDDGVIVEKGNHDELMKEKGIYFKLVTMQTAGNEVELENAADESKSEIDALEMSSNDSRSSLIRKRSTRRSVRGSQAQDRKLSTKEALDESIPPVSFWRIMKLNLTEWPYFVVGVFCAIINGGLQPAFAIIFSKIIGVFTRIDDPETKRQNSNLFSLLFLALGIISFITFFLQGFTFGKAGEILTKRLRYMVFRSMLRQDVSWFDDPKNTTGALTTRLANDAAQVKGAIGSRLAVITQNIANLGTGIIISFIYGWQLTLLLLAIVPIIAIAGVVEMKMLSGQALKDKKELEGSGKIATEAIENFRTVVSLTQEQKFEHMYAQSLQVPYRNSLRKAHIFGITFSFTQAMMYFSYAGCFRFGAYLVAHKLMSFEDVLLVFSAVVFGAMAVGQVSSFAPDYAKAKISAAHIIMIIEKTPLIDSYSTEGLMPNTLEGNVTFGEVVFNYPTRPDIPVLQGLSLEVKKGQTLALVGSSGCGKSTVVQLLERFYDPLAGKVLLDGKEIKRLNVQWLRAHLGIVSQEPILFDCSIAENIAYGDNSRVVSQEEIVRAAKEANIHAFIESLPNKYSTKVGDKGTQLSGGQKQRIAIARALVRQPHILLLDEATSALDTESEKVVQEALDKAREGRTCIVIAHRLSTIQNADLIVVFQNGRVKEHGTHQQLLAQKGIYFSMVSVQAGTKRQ", "test": "Rhodamine 123 efflux test (P-gp functional activity) in HBL-100/Dox cells", "format": "cell-based", "settings": "Rh123 efflux, 60 min", "protocol": "The functional activity of P-gp was evaluated using the previously described method. […] After incubation, the cells were washed twice and divided into several fractions (2.5 × 10^5 cells per point). One fraction was incubated in a pure medium, and the other one was incubated with MK (2.0 μM) added. […] Cell fluorescence was evaluated on CytoFlex S flow cytometer (Beckman Coulter, Brea, CA, USA). The results were analyzed using FlowJo software (ver. X 10.0.7r2, FlowJo Software, San Jose, CA, USA) and were represented as geometric mean fluorescence intensity (gMFI) and MAF coefficient, which were calculated using the following formula: MAF = (Mean (inh.) − Mean (free))/Mean (inh.), where MAF is the MDR activity functional, mean (free) is the mean value of cell fluorescence without inhibitor, and mean (inh.) is the mean value for cell fluorescence with inhibitor."}, "[6]": {"test_system": "HBL-100 cells", "test": "Cell cycle analysis (DAPI, flow cytometry), HBL-100", "format": "cell-based, human", "settings": "for Cell cycle of HBL-100, G0/G1 / Cell cycle of HBL-100, G2/M / Cell cycle of HBL-100, S-phase / Cell cycle of HBL-100, subG0/G1: dose = IC50", "protocol": "The cells were trypsinized and rinsed with the growth medium. Then, the cells were harvested by centrifugation at 500× g for 3 min, and the supernatant was discarded. The cells were washed with PBS (PanEco, Moscow, Russia) twice and centrifuged under similar conditions. The cells were resuspended in 500 μL of PBS, put into centrifuge tubes and fixed by adding 4.5 mL of 70% ethanol dropwise (on ice). The samples were fixed at 4 °C. Overnight, the fixed cells were centrifugally collected (1000× g, 4 °C, 5 min) and washed again with PBS. The cells were finally resuspended in DAPI with 0.1% Triton X-100 in PBS solution (10 μg/mL, Sigma–Aldrich, St. Louis, MO, USA), and stained for 30 min at room temperature in darkness. For each sample, at least 50,000 cells were analyzed using the CytoFlex S flow cytometer (Beckman Coulter, Brea, CA, USA). Cell cycle populations were quantified from DNA histograms with the FlowJo software (ver. X 10.0.7r2, FlowJo Software, San Jose, CA, USA)."}, "[7]": {"test_system": "HBL-100 cells", "test": "Hoechst 33342 / TMRE fluorescent microscopy, HBL-100", "format": "cell-based, human", "protocol": "(§2) The DNA marker, termed Hoechst 33342 Ready Flow Reagent, was used as a stock solution (Invitrogen, ThermoFisher Scientific, USA). The mitochondrial marker, LumiTracker Mito TMRE (tetramethylrhodamine, ethyl ester; Lumiprobe, Moscow, Russia), was dissolved in DMSO as 1.0 mM stock solution. The marker of reactive oxygen species, H2DCFDA (Lumiprobe, Moscow, Russia), was dissolved in DMSO as 100.0 μM stock solution. After incubation, the cells were incubated with FBS-free culture medium containing the dye mixture of Hoechst 33342 (final concentration 1.0 μM) and LumiTracker Mito TMRE (final concentration 1.0 μM), or H2DCFDA dye taken alone (final concentration 1.0 μM), for 30 min at 37 °C in darkness. Fluorescence, at 420 nm (Hoechst 33342), at 510 nm (TMRE), and at 575 nm (H2DCFDA), of the test cultures (including controls) was analyzed immediately using a fluorescence microscope CKX 53 (Olympus, Tokyo, Japan). The TMRE fluorescence intensity was quantified using Fiji (ImageJ)."}, "[8]": {"test_system": "HBL-100/Dox cells", "test": "ROS by H2DCFDA fluorescent staining, HBL-100/Dox", "format": "cell-based, human", "settings": "MK 1.8 μM, 4 h", "protocol": "as §2"}, "[9]": {"test_system": "human cancer cell lines", "test": "MTT assay, panel of cancer cell lines", "settings": "for IC50: Homo sapiens", "method": "In this study, the human embryonic kidney cell line HEK293 was used as the non-cancerous cell line.\nTo investigate the cytotoxic activity of the compounds under study, the MTT colorimetric assay [45] was performed. […] After 72 h, 20 μL of 5 mg/mL solution of MTT (PanEco, Moscow, Russia), in sterile phosphate-buffered saline (PBS; PanEco, Moscow, Russia), was added to each well and further incubated for 4 h. Then, the medium with the compounds was removed, and the formed formazan crystals were dissolved in 100 μL of DMSO. […] The IC50 values were determined from dose-dependent curves, using Prism 6.0 (GraphPad Software, Boston, MA, USA)."}}, "note": "“And” between values parts separate entries of the source, which are not always exact repeats. Equal entries are not always repeated. Where two headings read alike, the source gives them in different places.", "data": [{"molecule": "COC(=O)[C@]12CC[C@@H](C(C)C)[C@@H]1[C@H]1CC[C@@H]3[C@@](C)(CCC#N)[C@H](C(=O)C(Br)Br)CC[C@@]3(C)[C@]1(C)CC2", "note": "[compound 31, 2-Cyano-24,24-dibromo-4-oxo-3,4-seco-3,23-dinorlupan-28-oic acid methyl ester]", "values": [{"measurement": "IC50", "setting": "[1]; RD TE32, MTT, 72 h of treatment, read-out: IC50 Values (Mean ± SD)", "value": "0.7 ± 0.1", "unit": "µM"}, {"measurement": "IC50", "setting": "[1]; Table S1, RD TE32, read-out: IC50 (mean ± SD)", "value": "0.66 ± 0.04", "unit": "µM"}, {"measurement": "Selectivity index (SI)", "setting": "[1]; ratio of IC50 values healthy (HEK293) / RD TE32", "value": 16.43}, {"measurement": "IC50", "setting": "[2]; A549, MTT, 72 h of treatment, read-out: IC50 Values (Mean ± SD)", "value": "7 ± 0.2", "unit": "µM"}, {"measurement": "IC50", "setting": "[2]; Table S1, A549, read-out: IC50 (mean ± SD)", "value": "7.01 ± 0.21", "unit": "µM"}, {"measurement": "Selectivity index (SI)", "setting": "[2]; ratio of IC50 values healthy (HEK293) / A549", "value": 1.64}, {"measurement": "IC50", "setting": "[3]; PC-3, MTT, 72 h of treatment, read-out: IC50 Values (Mean ± SD)", "value": "10.4 ± 1.3", "unit": "µM"}, {"measurement": "IC50", "setting": "[3]; Table S1, PC-3, read-out: IC50 (mean ± SD)", "value": "10.3 ± 1.27", "unit": "µM"}, {"measurement": "Selectivity index (SI)", "setting": "[3]; ratio of IC50 values healthy (HEK293) / PC-3", "value": 1.11}, {"measurement": "death of the cells", "setting": "[4]; HBL-100/Dox, MK at IC50 dose, after 72 h exposure", "value": 50, "unit": "%"}, {"measurement": "IC50", "setting": "[4]; Homo sapiens, HBL-100, 72 h, read-out: IC50 Values (Mean ± SD)", "value": "1.8 ± 0.1", "unit": "µM"}, {"measurement": "Selectivity index (SI)", "setting": "[4]; ratio of IC50 values healthy (HEK293) / HBL-100/Dox", "value": 6.39}, {"measurement": "P-gp inhibitory activity", "setting": "[5]", "value": "extremely low P-gp inhibitory activity"}, {"measurement": "MAF (MDR activity functional)", "setting": "[5]; MK 2 μM, verapamil 30 μM, listed as MK", "value": "0.22±0.1 and 0.22"}, {"measurement": "Cell cycle of HBL-100, G0/G1", "setting": "[6]; 12 h", "value": "59.78±0.94", "unit": "%"}, {"measurement": "Cell cycle of HBL-100, G2/M", "setting": "[6]; 12 h", "value": "15.88±0.50", "unit": "%"}, {"measurement": "Cell cycle of HBL-100, S-phase", "setting": "[6]; 12 h", "value": "24.35±0.43", "unit": "%"}, {"measurement": "Cell cycle of HBL-100, subG0/G1", "setting": "[6]; 12 h", "value": "1.44 ± 0.44", "unit": "%"}, {"measurement": "Cell cycle of HBL-100, G0/G1", "setting": "[6]; 13 h", "value": "56.56±0.16", "unit": "%"}, {"measurement": "Cell cycle of HBL-100, G2/M", "setting": "[6]; 13 h", "value": "16.70±0.71", "unit": "%"}, {"measurement": "Cell cycle of HBL-100, S-phase", "setting": "[6]; 13 h", "value": "26.74±0.54", "unit": "%"}, {"measurement": "Cell cycle of HBL-100, subG0/G1", "setting": "[6]; 13 h", "value": "1.74±0.05", "unit": "%"}, {"measurement": "Cell cycle of HBL-100, G0/G1", "setting": "[6]; 14 h", "value": "56.69±0.01", "unit": "%"}, {"measurement": "Cell cycle of HBL-100, G2/M", "setting": "[6]; 14 h", "value": "16.96±0.16", "unit": "%"}, {"measurement": "Cell cycle of HBL-100, S-phase", "setting": "[6]; 14 h", "value": "26.35±0.16", "unit": "%"}, {"measurement": "Cell cycle of HBL-100, subG0/G1", "setting": "[6]; 14 h", "value": "1.74±0.18", "unit": "%"}, {"measurement": "Cell cycle of HBL-100, G0/G1", "setting": "[6]; 15 h", "value": "57.83±1.04", "unit": "%"}, {"measurement": "Cell cycle of HBL-100, G2/M", "setting": "[6]; 15 h", "value": "16.29±0.55", "unit": "%"}, {"measurement": "Cell cycle of HBL-100, S-phase", "setting": "[6]; 15 h", "value": "25.88±0.49", "unit": "%"}, {"measurement": "Cell cycle of HBL-100, subG0/G1", "setting": "[6]; 15 h", "value": "2.38±0.42", "unit": "%"}, {"measurement": "Cell cycle of HBL-100, G0/G1", "setting": "[6]; 16 h", "value": "56.91±0.07", "unit": "%"}, {"measurement": "Cell cycle of HBL-100, G2/M", "setting": "[6]; 16 h", "value": "18.83±0.14", "unit": "%"}, {"measurement": "Cell cycle of HBL-100, S-phase", "setting": "[6]; 16 h", "value": "24.26±0.08", "unit": "%"}, {"measurement": "Cell cycle of HBL-100, subG0/G1", "setting": "[6]; 16 h", "value": "4.89±1.93", "unit": "%"}, {"measurement": "Cell cycle of HBL-100, G0/G1", "setting": "[6]; 17 h", "value": "55.78±0.79", "unit": "%"}, {"measurement": "Cell cycle of HBL-100, G2/M", "setting": "[6]; 17 h", "value": "18.39±1.04", "unit": "%"}, {"measurement": "Cell cycle of HBL-100, S-phase", "setting": "[6]; 17 h", "value": "25.83±0.24", "unit": "%"}, {"measurement": "Cell cycle of HBL-100, subG0/G1", "setting": "[6]; 17 h", "value": "3.50±0.42", "unit": "%"}, {"measurement": "Cell cycle of HBL-100, G0/G1", "setting": "[6]; 18 h", "value": "56.81±0.03", "unit": "%"}, {"measurement": "Cell cycle of HBL-100, G2/M", "setting": "[6]; 18 h", "value": "15.38±0.01", "unit": "%"}, {"measurement": "Cell cycle of HBL-100, S-phase", "setting": "[6]; 18 h", "value": "27.81±0.04", "unit": "%"}, {"measurement": "Cell cycle of HBL-100, subG0/G1", "setting": "[6]; 18 h", "value": "4.39±0.82", "unit": "%"}, {"measurement": "Cell cycle of HBL-100, G0/G1", "setting": "[6]; 24 h", "value": "66.48 ± 1.33", "unit": "%"}, {"measurement": "Cell cycle of HBL-100, G2/M", "setting": "[6]; 24 h", "value": "4.43 ± 0.50", "unit": "%"}, {"measurement": "Cell cycle of HBL-100, S-phase", "setting": "[6]; 24 h", "value": "29.09±0.89", "unit": "%"}, {"measurement": "Cell cycle of HBL-100, subG0/G1", "setting": "[6]; 24 h", "value": "8.22 ± 0.59", "unit": "%"}, {"measurement": "effect on cell cycle progression", "setting": "[6]; HBL-100 (parental) cells, 12-24 h, IC50", "value": "blocked or slowed down the cell cycle progression through the G0/G1 phase"}, {"measurement": "mitochondrial membrane potential (MMP), TMRE fluorescence intensity", "setting": "[7]; 16 h, vs untreated control", "value": "significant (p < 0.05) reduction in MMP"}, {"measurement": "number of cells with nuclear morphology changes", "setting": "[7]; Hoechst 33342, 16 h, IC50 values (MK 1.0 µM)", "value": 21.2, "unit": "%"}, {"measurement": "ROS generation, H2DCFDA staining", "setting": "[8]", "value": "significantly heightened the ROS generation"}, {"measurement": "IC50", "setting": "[9]; read-out: IC50 values (range)", "value": "0.7 to 7.1", "unit": "µM"}, {"measurement": "IC50", "setting": "[9]; read-out: cytotoxicity (IC50 range)", "value": "0.7 to 16.6", "unit": "µM"}, {"measurement": "cytotoxicity in the screening studies", "setting": "[9]; MTT screening, Table S1", "value": "pronounced cytotoxic effect"}, {"measurement": "SI (range)", "setting": "[9]; against HBL-100/Dox, HBL-100, and RD TE32 cells", "value": "6.39–16.43"}]}]}
